# In patent US10759781B2, “Substituted guanidine derivatives” (UBE INDUSTRIES, LTD., priority 2015, dated 2020):
# Target: T1, Human VAP-1 enzyme (Homo sapiens, UniProt Q16853)
# T1 construct: purchased R&D Systems, Inc
# T1 sequence (Q16853 1-763): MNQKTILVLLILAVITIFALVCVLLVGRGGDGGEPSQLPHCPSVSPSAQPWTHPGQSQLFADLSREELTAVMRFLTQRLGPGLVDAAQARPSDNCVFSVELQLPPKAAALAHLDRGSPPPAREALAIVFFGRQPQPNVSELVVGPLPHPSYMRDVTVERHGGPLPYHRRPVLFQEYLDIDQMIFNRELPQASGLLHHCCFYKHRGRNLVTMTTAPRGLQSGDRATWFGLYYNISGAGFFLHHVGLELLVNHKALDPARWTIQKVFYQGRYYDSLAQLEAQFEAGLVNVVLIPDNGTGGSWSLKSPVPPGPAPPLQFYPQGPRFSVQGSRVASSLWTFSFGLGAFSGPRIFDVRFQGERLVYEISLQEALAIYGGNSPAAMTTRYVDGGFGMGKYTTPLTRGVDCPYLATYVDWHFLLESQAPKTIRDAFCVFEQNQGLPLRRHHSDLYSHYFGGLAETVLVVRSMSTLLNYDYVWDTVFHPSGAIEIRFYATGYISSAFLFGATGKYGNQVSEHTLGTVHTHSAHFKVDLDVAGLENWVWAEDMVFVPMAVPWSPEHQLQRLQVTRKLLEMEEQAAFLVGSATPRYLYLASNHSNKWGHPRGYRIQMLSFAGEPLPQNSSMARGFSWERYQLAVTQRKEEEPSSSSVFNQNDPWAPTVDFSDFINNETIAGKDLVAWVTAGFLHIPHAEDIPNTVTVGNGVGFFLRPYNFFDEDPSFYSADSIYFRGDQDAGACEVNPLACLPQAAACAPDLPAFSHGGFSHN
# Experiment: Human VAP-1 enzyme inhibition test
# Type: biochemical
# Conditions: 1 h; compound 30 nM; 14C-benzylamine 100 μM; read-out: inhibition ratio (human VAP-1 enzyme)
# Procedure, shortened: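 Recombinant human VAP-1 pre-incubated 20 min at room temperature with compound in DMSO, then reacted with 14C-benzylamine (100 μM final) 1 h at 37 °C. Citric acid stop; oxidized product extracted into toluene/ethyl acetate and counted by liquid scintillation. Inhibition ratio relative to DMSO-only activity.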
row,SMILES,inhibition at 0.03 µM [%]
1,"[2H]C([2H])([2H])ON=C1CN(c2ncc(-c3cccc(COC(=O)NC(=N)N)c3F)cc2F)C1 [Example 37, 2-fluoro-3-(5-fluoro-6-{3-[(methoxy-d3)imino]azetidin-1-yl}pyridin-3-yl)benzyl carbamimidoylcarbamate]",≥ 50
2,"N=C(N)NC(=O)OCc1cccc(-c2cnc(N3CC(=NOCCC(O)CO)C3)c(F)c2)c1F (centres unmarked) [Example 95, 3-(6-{3-[(3,4-Dihydroxybutoxy)imino]azetidin-1-yl}-5-fluoropyridin-3-yl)-2-fluorobenzyl carbamimidoylcarbamate]",≥ 50
3,"N=C(N)NC(=O)OCc1cccc(-c2cnc(N3CC(=NOCC(CO)CO)C3)c(F)c2)c1F [Example 96, 2-Fluoro-3-{5-fluoro-6-[3-{[3-hydroxy-2-(hydroxymethyl)propoxy]imino}azetidin-1-yl]pyridin-3-yl}benzyl carbamimidoylcarbamate]",≥ 50

# Second part, the molecule after the results:
row,inhibition at 0.03 µM [%],SMILES
1,≥ 50,"CON=C1CN(c2ncc(-c3cccc(COC(=O)NC(=N)N)c3F)cc2F)C1 [Example 36, 2-fluoro-3-{5-fluoro-6-[3-(methoxyimino)azetidin-1-yl]pyridin-3-yl}benzyl carbamimidoylcarbamate]"
2,≥ 50,"N=C(N)NC(=O)OCc1cccc(-c2cnc(N3CC(=NOCC(F)CO)C3)nc2)c1F (centres unmarked) [Example 102, 2-Fluoro-3-(2-{3-[(2-fluoro-3-hydroxypropoxy)imino]azetidin-1-yl}pyrimidin-5-yl)benzyl carbamimidoylcarbamate]"
